Test [1] deals with T1, BaF3 cells transfected with T315I p210 BCR-Abl (Homo sapiens, UniProt P00519, T315I, cells depend on it).
T1 construct: fused on or other part: P11274 (Breakpoint cluster region protein)
Kind of test: Ba/F3 p210 T315I whole cell proliferation assay. The class given is cell-based. The note with it: 72 hours, Cell Titer Blue; read-out: Whole Cell Antiproliferation IC50, Ba/F3 p210 T315I whole cell proliferation assay. The procedure: (§1) BaF3 cells (parental or transfected with the following: wild type p210 BCR-Abl and T315I p210 BCR-Abl was obtained from Professor Richard Van Etten (New England Medical Center, Boston, Mass.). Briefly, cells were grown in RPMI 1640 supplemented with 10% characterized fetal bovine serum (HyClone, Logan, Utah) at 37 degrees Celsius, 5% CO2, 95% humidity. Cells were allowed to expand until reaching 80% saturation at which point they were subcultured or harvested for assay use.
(§2) A serial dilution of test compound was dispensed into a 96 well black clear bottom plate (Corning, Corning, N.Y.). For each cell line, three thousand cells were added per well in complete growth medium. Plates were incubated for 72 hours at 37 degrees Celsius, 5% CO2, 95% humidity. At the end of the incubation period Cell Titer Blue (Promega, Madison, Wis.) was added to each well and an additional 4.5 hour incubation at 37 degrees Celsius, 5% CO2, 95% humidity was performed. Plates were then read on a BMG Fluostar Optima (BMG, Durham, N.C.) using an excitation of 544 nm and an emission of 612 nm. Data was analyzed using Prism software (Graphpad, San Diego, Calif.) to calculate IC50's.

The target in test [2] is T2, C-Met kinase (SEQ ID NO:10) (Homo sapiens, UniProt P08581).
T2 construct: 956-1390, from Invitrogen, catalogue #PV3143; His6 (N-terminal leader MSYYHHHHHH... with TEV and thrombin sites) (N); purchased Invitrogen PV3143
Kind of test: C-Met kinase (SEQ ID NO:10) assay, pyruvate kinase/lactate dehydrogenase coupled. The settings on record: 0.5 h preincubation, ATP 100 μM; read-out: Biochemical IC50, c-Met Enzyme Assay. The method, then:
C-Met Kinase (SEQ ID NO:10) Assay
Activity of C-Met kinase (SEQ ID NO:10) was determined by following the production of ADP from the kinase reaction through coupling with the pyruvate kinase/lactate dehydrogenase system (e.g., Schindler, et al. Science (2000) 289, 1938-1942). In this assay, the oxidation of NADH (thus the decrease at A340 nm) was continuously monitored spectrophometrically. The reaction mixture (100 μl) contained C-Met (c-Met residues; 956-1390, from Invitrogen, catalogue #PV3143, […]), polyE4Y (1 mg/ml), MgCl2 (10 mM), pyruvate kinase (4 units), lactate dehydrogenase (0.7 units), phosphoenol pyruvate (1 mM), and NADH (0.28 mM) in 90 mM Tris buffer containing 0.25 mM DTT, 0.2% octyl-glucoside and 1% DMSO, pH 7.5. Test compounds were incubated with C-Met (SEQ ID NO:10) and other reaction reagents at 22° C. for 0.5 h before ATP (100 μM) was added to start the reaction. The absorption at 340 nm was monitored continuously for 2 hours at 30° C. on Polarstar Optima plate reader (BMG). The reaction rate was calculated using the 1.0 to 2.0 h time frame. Percent inhibition was obtained by comparison of reaction rate with that of a control (i.e. with no test compound). IC50 values were calculated from a series of percent inhibition values determined at a range of inhibitor concentrations using software routines as implemented in the GraphPad Prism software package.

The target of test [3] is T3, T315I Abl kinase (SEQ ID NO:2) (Homo sapiens, UniProt P00519, T315I).
T3 construct: purchased deCode Genetics
T3 sequence (P00519 with tags, fused parts or gaps T315I): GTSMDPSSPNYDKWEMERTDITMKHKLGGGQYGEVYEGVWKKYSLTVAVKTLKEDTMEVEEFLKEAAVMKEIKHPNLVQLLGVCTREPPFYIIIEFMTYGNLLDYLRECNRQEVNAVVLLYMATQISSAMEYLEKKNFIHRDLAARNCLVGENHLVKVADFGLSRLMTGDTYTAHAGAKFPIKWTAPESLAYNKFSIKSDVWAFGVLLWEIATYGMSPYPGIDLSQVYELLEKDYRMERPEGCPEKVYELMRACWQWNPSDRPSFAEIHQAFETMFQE
The experiment in a line: T315I Abl kinase (SEQ ID NO:2) assay, pyruvate kinase/lactate dehydrogenase coupled. The settings on record: 1 h preincubation, ATP 500 μM; read-out: Biochemical IC50, Abl T315I Enzyme Assay. The procedure: Abl Kinase (SEQ ID NO:2) Assay
Activity of T315I Abl kinase (SEQ ID NO:2) was determined by following the production of ADP from the kinase reaction through coupling with the pyruvate kinase/lactate dehydrogenase system (e.g., Schindler, et al. Science (2000) 289, 1938-1942). In this assay, the oxidation of NADH (thus the decrease at A340 nm) was continuously monitored spectrophometrically. The reaction mixture (100 μl) contained Abl kinase (4.4 nM, […] Abl from deCode Genetics), peptide substrate (EAIYAAPFAKKK, 0.2 mM), MgCl2 (10 mM), pyruvate kinase (4 units), lactate dehydrogenase (0.7 units), phosphoenol pyruvate (1 mM), and NADH (0.28 mM) in 90 mM Tris buffer containing 0.2% octyl-glucoside and 1% DMSO, pH 7.5. Test compounds were incubated with T315I Abl (SEQ ID NO:2) and other reaction reagents at 30° C. for 1 h before ATP (500 μM) was added to start the reaction. The absorption at 340 nm was monitored continuously for 2 hours at 30° C. on Polarstar Optima plate reader (BMG). The reaction rate was calculated using the 1.0 to 2.0 h time frame. Percent inhibition was obtained by comparison of reaction rate with that of a control (i.e. with no test compound). IC50 values were calculated from a series of percent inhibition values determined at a range of inhibitor concentrations using software routines as implemented in the GraphPad Prism software package.

The target of test [4] is T4, Abl kinase (SEQ ID NO: 1) (Homo sapiens, UniProt P00519).
T4 construct: purchased deCode Genetics
T4 sequence (P00519 with tags, fused parts or gaps): T3 sequence (P00519 with tags, fused parts or gaps T315I) with I94T
The experiment in a line: Abl kinase (SEQ ID NO:1) assay, pyruvate kinase/lactate dehydrogenase coupled. The note with it: 2 h preincubation, ATP 500 μM; read-out: Biochemical IC50, Abl Enzyme Assay. The method, then: Abl Kinase (SEQ ID NO:1) Assay
Activity of Abl kinase (SEQ ID NO: 1) was determined by following the production of ADP from the kinase reaction through coupling with the pyruvate kinase/lactate dehydrogenase system (e.g., Schindler, et al. Science (2000) 289, 1938-1942). In this assay, the oxidation of NADH (thus the decrease at A340 nm) was continuously monitored spectrophometrically. The reaction mixture (100 μl) contained Abl kinase (1 nM. Abl from deCode Genetics), peptide substrate (EAIYAAPFAKKK, 0.2 mM), MgCl2 (10 mM), pyruvate kinase (4 units), lactate dehydrogenase (0.7 units), phosphoenol pyruvate (1 mM), and NADH (0.28 mM) in 90 mM Tris buffer containing 0.2% octyl-glucoside and 3.5% DMSO, pH 7.5. Test compounds were incubated with Abl (SEQ ID NO:1) and other reaction reagents at 30° C. for 2 h before ATP (500 μM) was added to start the reaction. The absorption at 340 nm was monitored continuously for 2 hours at 30° C. on Polarstar Optima plate reader (BMG). The reaction rate was calculated using the 1.0 to 2.0 h time frame. Percent inhibition was obtained by comparison of reaction rate with that of a control (i.e. with no test compound). IC50 values were calculated from a series of percent inhibition values determined at a range of inhibitor concentrations using software routines as implemented in the GraphPad Prism software package.

The target in test [5] is T5, BaF3 cells transfected with wild type p210 BCR-Abl (Homo sapiens, UniProt P00519).
T5 construct: fused on or other part: P11274 (Breakpoint cluster region protein)
Kind of test: Ba/F3 p210 whole cell proliferation assay. The class given is cell-based. The note with it: 72 hours, Cell Titer Blue; read-out: Whole Cell Antiproliferation IC50, Ba/F3 p210 whole cell proliferation assay. The procedure:
as §1, §2

Numbering of substitutions follows the chain as printed.

The record followed here is patent US8143293B2, “Kinase inhibitors useful for the treatment of myleoprolific diseases and other proliferative diseases” (Deciphera Pharmaceuticals, LLC, priority 2007, dated 2012).

T2 sequence (P08581 with tags, fused parts or gaps): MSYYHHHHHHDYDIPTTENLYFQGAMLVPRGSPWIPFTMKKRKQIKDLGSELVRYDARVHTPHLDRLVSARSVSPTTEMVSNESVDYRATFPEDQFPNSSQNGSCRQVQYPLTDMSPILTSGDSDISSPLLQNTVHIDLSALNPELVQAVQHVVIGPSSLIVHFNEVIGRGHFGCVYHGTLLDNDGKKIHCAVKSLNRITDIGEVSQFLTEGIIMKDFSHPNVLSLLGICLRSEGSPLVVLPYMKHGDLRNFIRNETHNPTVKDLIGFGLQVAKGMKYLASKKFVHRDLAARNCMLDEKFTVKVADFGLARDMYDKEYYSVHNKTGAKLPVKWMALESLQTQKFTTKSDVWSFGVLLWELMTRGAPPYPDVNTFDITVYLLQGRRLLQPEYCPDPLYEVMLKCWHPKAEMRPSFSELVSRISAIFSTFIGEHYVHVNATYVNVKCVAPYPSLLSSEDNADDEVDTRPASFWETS

For the compound “tert-butyl 4-(2-tert-butyl-5-(3-(2-fluoro-4-(2-(1-methyl-1H-pyrazol-4-yl)pyridin-4-yloxy)phenyl)ureido)pyrimidin-4-yl)piperazine-1-carboxylate [Example 40]”, the GI50 in test [1] and in test [5] was less than 1000 nM each time. The concentration for half-maximal inhibition (IC50) – broadly, the concentration needed to halve the response being measured – is less than 100000 nM in test [2], less than 1000 nM in test [3] and less than 100 nM in test [4].
Turning to “1-(3-cyclopentylisoxazol-5-yl)-3-(2-fluoro-4-(2-(1-methyl-1H-pyrazol-4-yl)pyridin-4-yloxy)phenyl)urea [Example 13]”, the GI50 in test [1] and in test [5] was less than 100 nM each time. Further, the 50% inhibitory concentration (IC50) in test [2] was less than 1000 nM; in test [3] it was less than 10000 nM; in test [4], less than 100 nM.
With `CC(C)n1cc(NC(=O)Nc2ccc(Oc3ccnc(-c4cnn(C)c4)c3)cc2F)c(C(F)(F)F)n1` [Example 18, 1-(2-fluoro-4-(2-(1-methyl-1H-pyrazol-4-yl)pyridin-4-yloxy)phenyl)-3-(1-isopropyl-3-(trifluoromethyl)-1H-pyrazol-4-yl)urea], the GI50 in test [1] and in test [5] was less than 100 nM in each case. Also, the 50% inhibitory concentration (IC50) is less than 10000 nM in test [2] and less than 100 nM in test [4].
On to `Cn1cc(-c2cc(Oc3ccc(NC(=O)Nc4cc(C(F)(F)F)nn4C)c(F)c3)ccn2)cn1` [Example 16, 1-(2-fluoro-4-(2-(1-methyl-1H-pyrazol-4-yl)pyridin-4-yloxy)phenyl)-3-(1-methyl-3-(trifluoromethyl)-1H-pyrazol-5-yl)urea], for which the GI50 in test [1] is less than 1000 nM; in test [5] it was less than 100 nM. In addition, the IC50 in test [2] is less than 10000 nM; in test [3] it was less than 1000 nM; in test [4] it was less than 100 nM.
In the case of `Cc1c(Oc2ccnc(-c3cnn(C)c3)c2)ccc(NC(=O)Nc2cnn(C(C)(C)C)c2)c1F` [Example 17, 1-(1-tert-butyl-1H-pyrazol-4-yl)-3-(2-fluoro-3-methyl-4-(2-(1-methyl-1H-pyrazol-4-yl)pyridin-4-yloxy)phenyl)urea], the GI50 in test [1] and in test [5] was less than 100 nM in each case. In addition, the 50% inhibitory concentration (IC50) in test [2] was less than 1000 nM; in test [3], less than 100 nM; in test [4], less than 100 nM.
For `Cc1c(NC(=O)Nc2ccc(Oc3ccnc(-c4cnn(C)c4)c3)cc2F)cnn1C(C)C` [Example 19, 1-(2-fluoro-4-(2-(1-methyl-1H-pyrazol-4-yl)pyridin-4-yloxy)phenyl)-3-(1-isopropyl-5-methyl-1H-pyrazol-4-yl)urea], the GI50 in test [1] was less than 10000 nM; in test [5] it was less than 100 nM. Further, the figures for the IC50 in test [2], in test [3] and in test [4] were less than 10000 nM, less than 1000 nM and less than 1000 nM, respectively.
Consider `Cc1nn(C(C)C)cc1NC(=O)Nc1ccc(Oc2ccnc(-c3cnn(C)c3)c2)cc1F` [Example 20, 1-(2-fluoro-4-(2-(1-methyl-1H-pyrazol-4-yl)pyridin-4-yloxy)phenyl)-3-(1-isopropyl-3-methyl-1H-pyrazol-4-yl)urea], for which the GI50 in test [1] was less than 1000 nM; in test [5], less than 100 nM. Moreover, the IC50 in test [2] was less than 10000 nM; in test [3], less than 100 nM; in test [4], less than 100 nM.
`Cn1cc(-c2cc(Oc3ccc(NC(=O)Nc4cc(C(F)(F)F)no4)c(F)c3)ccn2)cn1` [Example 7, 1-(2-fluoro-4-(2-(1-methyl-1H-pyrazol-4-yl)pyridin-4-yloxy)phenyl)-3-(3-(trifluoromethyl)isoxazol-5-yl)urea]: the GI50 in test [1] was less than 1000 nM; in test [5], less than 100 nM. Besides, the IC50 was less than 10000 nM in test [2], less than 100 nM in test [3] and less than 100 nM in test [4].
For the compound `Cn1cc(-c2cc(Oc3ccc(NC(=O)Nc4cc(C(C)(C)C)on4)c(F)c3)ccn2)cn1` [Example 4, 1-(5-t-butylisoxazol-3-yl)-3-(2-fluoro-4-(2-(1-methyl-1H-pyrazol-4-yl)pyridin-4-yloxy)phenyl)urea], the GI50 in test [1] and in test [5] was less than 100 nM throughout. In addition, the values for the IC50 in test [2], in test [3] and in test [4] were less than 1000 nM, less than 100 nM and less than 100 nM, respectively.
